Assay results reported in article PMC7377239, “Cardiovascular Effects of Polychlorinated Biphenyls and Their Major Metabolites” (Environmental Health Perspectives, 2020).
Read-outs that look alike come from different tables or passages of the source.

System: iCell endothelial cells (human iPSC-derived ECs)
Assay: Tube formation (tubulogenesis) assay in iCell endothelial cells, 18 h
Type: cell-based
Conditions: Homo sapiens, Endothelial cell, endothelial cells (endo), 18 hr
How it was run: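 Tube formation was measured by calcein AM imaging after overnight compound exposure (37°C, 0.5% DMSO vehicle) of human iPSC-derived ECs, 7,500/well, on reduced-growth-factor Geltrex in starvation medium. Vehicle-normalized data fitted to four-parameter logistic; POD set at one vehicle SD; without response, 100 μM taken as NOAEL.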

[1] = tube formation mtl, read-out: POD endo.mtl.18hr
[2] = tube formation tlps, read-out: POD endo.tlps.18hr
[3] = tube formation tta, read-out: POD endo.tta.18hr
[4] = tube formation ttl, read-out: POD endo.ttl.18hr

| Compound | minimal effective concentration [1] | minimal effective concentration [2] | minimal effective concentration [3] | minimal effective concentration [4] |
| --- | --- | --- | --- | --- |
| Clc1ccc(-c2ccccc2)cc1 [PCB 3, 4-chlorobiphenyl] | 100 µM | 100 µM | 100 µM | 100 µM |
| Clc1cccc(-c2cccc(Cl)c2)c1 [PCB 11, 3,3′-Dichlorobiphenyl] | 100 µM | 100 µM | 100 µM | 100 µM |
| Clc1ccc(Cl)c(-c2cc(Cl)ccc2Cl)c1 [PCB 52, 2,2′,5,5′-tetrachlorobiphenyl] | 79.8 µM | 100 µM | 100 µM | 100 µM |
| Clc1ccc(Cl)c(-c2c(Cl)ccc(Cl)c2Cl)c1 [PCB 95, 2,2′,3,5′,6-pentachlorobiphenyl] | 48.6 µM | 53.9 µM | 48.7 µM | 55.7 µM |
| Clc1ccc(-c2cc(Cl)c(Cl)c(Cl)c2)cc1Cl [PCB 126, 3,3′,4,4′,5-pentachlorobiphenyl] | 28.1 µM | 4.68 µM | 25.7 µM | 38.9 µM |
| Clc1cc(Cl)c(-c2cc(Cl)c(Cl)cc2Cl)cc1Cl [PCB 153, 2,2′,4,4′,5,5′-hexachlorobiphenyl] | 0.007 µM | 1.93 µM | 3.83 µM | 0.58 µM |
